# Entries after “also recorded” stand apart in the source; their conditions may differ. Read-outs that look alike come from different tables or passages of the source.
# Experiments:
# I338G v-Src = molecular target: T1, I338G v-Src (Rous sarcoma virus subgroup A, UniProt P00524, DEL77-225/I338G); experiment: biochemical; assay type: biochemical
# T1 construct: screened against the catalytic domain of the target kinase, I338G v-Src; made in house; host or cells: E. coli DH5a, pGEX-KT
# [1] = test system: B cell receptor (BCR) mediated phosphorylation cascade in murine B cells; experiment: Murine B Cell Assay (phosphotyrosine blot after anti-IgM stimulation); assay type: cell-based; parameters: dose or concentration left out as unconfirmed; details: 30 minutes, anti-IgM cross linked murine B cells
# Description: Murine B Cell Assay: Splenic lymphocytes were isolated from 6-20 week old Balb/c or C57/B6 mice. The cells were washed out of the spleen into RPMI media containing 1 mg/mL DNase in and the red blood cells were lysed in 17 mM tris-ammonium chloride, pH 7.2, Approximately 4×10^6 cells were incubated at 37° C. for 30 minutes with […] of 3 g or 2 in 1.1% DMSO. B cell stimulation was initiated by the addition of 2 mg of goat anti-mouse IgM (Jackson Immuno Research, cat# 115-005-075) and subsequent incubation for 5 minutes at 37(C. The cells were isolated by centrifugation (13,000 rpm, 2 min) and lysed (lysis buffer: 1% Triton X-100, 50 mM tris pH 7.4, 2 mM EDTA, 150 mM NaCl, […] PMSF, 2 mM sodium orthovanadate, 10 mg/mL leupeptin, 10 mg/mL apoprotin). The cellular debris was then pelleted at 13,000 rpm for 15 min. Cellular proteins were separated by 10% polyacrylamide gel electrophoresis and transferred to a nitrocellulose membrane by Western blotting. Phosphotyrosine containing proteins were visualized by immunoblotting with anti-phosphotyrosine antibody (Upstate Biotechnology, Inc.).
# PKCd = molecular target: T2, PKCd (Homo sapiens, UniProt Q05655); experiment: In Vitro Kinase Inhibition Assay; assay type: biochemical; details: at concentrations up to 300 mM
# T2 construct: 6-His; made in house; host or cells: Bac-to-Bac baculovirus expression system (pFastBac B vector)
# [2] = test system: I338G v-Src transformed NIH3T3 fibroblasts; experiment: Microscopy of cell morphology and polymerized actin; assay type: cell-based, murine; details: 100 mM 3g, 48 hours
# Description: FIG. 21A show non-transformed NIH3T3 cells.
# Microscopy: Non-transformed, WT v-Src transformed, and 1338G v-Src transformed NIH3T3 fibroblasts were grown in DMEM/10% BCS on tissue culture treated slides. V-Src expressing cells were treated with either 1.1% DMSO or […] 3g in 1.1% DMSO. After 48 hours cells were photographed at 400(magnification on an Nikon TMS light microscope. Immediately following light microscopy, the cells were fixed for 20 min in 3.7% formaldehyde/PBS and permeabilized for 60 sec in 0.2% Triton X-100(/PBS. Permeabilized cells were incubated with 200 ng/mL phalloidin-FITC/PBS for 20 min. Slides were rinsed with PBS and polymerized actin was visualized by fluorescence microscopy at 600( magnification on a Zeiss fluorescence microscope.
# [3] = test system: WT v-Src transformed NIH3T3 cells; experiment: Inhibition of v-Src in NIH3T3 fibroblasts (phosphotyrosine blot); assay type: cell-based, murine; details: 100 mM 3g, 12 hours
# Description: Tyrosine phosphorylated proteins were visualized as in FIG. 20A.
# Retroviral Infection of NIH 3T3 Fibroblasts: Genes encoding WT and I338G v-Src were transfected into a packaging cell line and NIH 3T3 fibroblasts were retrovirally infected using the pBabe retroviral vector and a puromycin ([…]) selectable marker as described (Shah, K., Liu, Y., Shokat, K. M., in preparation). WT and I338G v-Src transformed cells were cultured in DMEM/10% BCS containing […] puromycin).
# After 12 hours, the cells were washed with PBS and lysed (lysis buffer: 1% Triton X-100, 50 mM tris pH 7.4, 2 mM EDTA, 150 mM NaCl, […], 2 mM sodium orthovanadate, 10 mg/mL leupeptin, 10 mg/mL apoprotin). The lysate was clarified by centrifugation at 13,000 rpm for 15 min. Lysate protein concentrations were normalized and equal volumes of the lysate were resolved electrophoretically and analyzed for phosphotyrosine content as described above.
# PKA = molecular target: T3, PKA (Homo sapiens, UniProt P17612); experiment: In Vitro Kinase Inhibition Assay; assay type: biochemical; details: at concentrations up to 300 mM
# T3 construct: purchased Pierce
# Source text: PKA was purchased (Pierce) and used without further purification.
# [4] = test system: wild-type cellular kinase in murine lymphocyte lysates; experiment: In vitro kinase reactions with radiolabeled nucleotide in murine lymphocyte lysates; assay type: biochemical; details: 100 μM radiolabeled nucleotide, 37° C., 10 min
# Description: For this it is preferably that no wild-type kinase, including ser/thr specific kinase (which carry out the bulk of cellular phosphorylation, as only 0.03% of all phosphoamino acids are tyrosine) (65), substantially accept the synthetic substrate. To establish that [γ-^32P]
# These assays were performed in a manner similar to the procedure set forth in Example 2, with the exception of the use of radiolabeled [γ-^32P] […] Proteins were separate by 12.5% SDS-PAGE. The gel was soaked in 10% acetic acid, 10% isopropanol for 1 h. after which it was dried in a gel dryer and exposed to Biomax MS film (Kodak # 111-1681) for 1 h.
# GST-XD4 [5] = molecular target: T4, GST-XD4 (Rous sarcoma virus subgroup A, UniProt P00524, DEL77-225); experiment: Autophosphorylation with radiolabeled nucleotide (autoradiogram); assay type: biochemical; parameters: mutant of the v-Src catalytic domain, (the XD4 fragment) were made as glutathione S-transferase (GST) fusion proteins; made in house; host or cells: E. coli (DH5a), pGEX-KT; details: GST-XD4, FIG. 5C lane 3
# Source text: (§1) It is even more significant that the new substrate, [γ-^32P] […] FIG. 5C is an autoradiogram showing [γ-^32P]
# GST-XD4(V323A, I338A) [6] = details: 100 μM analog, 10 μM [γ-32P] ATP
# GST-XD4(V323A, I338A) [7] = molecular target: T5, GST-XD4(V323A, I338A) (Rous sarcoma virus subgroup A, UniProt P00524, DEL77-225/I338A/V323A); assay type: biochemical
# T5 construct: mutant of the v-Src catalytic domain, (the XD4 fragment) were made as glutathione S-transferase (GST) fusion proteins; made in house; host or cells: E. coli (DH5a), pGEX-KT
# Description: (§2) Kinetic constants were determined by analysis of Lineweaver-Burk plots of the rate data (64).
# GST-XD4 [8] = molecular target: T4, GST-XD4; experiment: biochemical; assay type: biochemical; parameters: mutant of the v-Src catalytic domain, (the XD4 fragment) were made as glutathione S-transferase (GST) fusion proteins; made in house; host or cells: E. coli (DH5a), pGEX-KT
# Description: as §2
# GST-XD4(V323A, I338A) [9] = molecular target: T5, GST-XD4(V323A, I338A); experiment: Autophosphorylation with radiolabeled nucleotide (autoradiogram); assay type: biochemical; details: FIG. 5C lane 4
# Source text: as §1
# [10] = test system: protein tyrosine kinase in murine lymphocyte cell lysate (CF); experiment: Screening of ATP analogs as kinase substrates in murine lymphocyte lysate (anti-phosphotyrosine immunoblot); assay type: biochemical; details: 100 uM nucleotide triphosphate, 37° C., 5 min
# Description: Screening of Nucleotide Analogs: To identify compounds that would not be accepted as substrates by any existing cellular kinase (53), a panel of synthetic A*TP analogs were screened in a murine lymphocyte lysate (CF) rich in protein tyrosine kinase (13). The assays were performed using spleenocytes (8-30 week old male and female C57/B6 mice from the Princeton University Animal Facility) which were isolated and washed in RPMI-1640 medium containing 5% Bovine Calf Serum (BCS), 1% Hepes and DNAseI (1 μg/ml). Red cells were lysed at 4° C. by treatment with 17 mM tris ammonium chloride pH 7.2. The cells were hypotonically lysed on ice for 10 min. In 1 mM Hepes pH 7.4, 5 mM MgCl2, leupeptin (10 μg/ml), aprotinin (10 μg/ml) and 100 uM PMSF according to the method of Fukazawa et. al. (51). After vortexing and centrifuigation at 500 xg, the supernatant was collected. Cells were stored at 4° C. for 20 min. To attenuate the basal protein phosphorylation level, after which the buffer was adjusted to 20 mM Hepes pH 7.4, 10 mM MgCl2 and 1 mM NaF. Sodium vanadate (100 uM) was then added to inhibit the activity of phosphotyrosine phosphatases.
# Each nucleotide triphosphate was added to a final concentration of 100 uM to 5×10^6 cell equivalents and incubated at 37° C. for 5 min. after which 4X Laemmli gel loading buffer was added to the cell lysate to quench the reaction. Proteins were separated by 12.5% SDS-PAGE and transferred to Protran BA85 (Schleicher-Schuell). The blot was probed with the anti-phosphotyrosine monoclonal antibody 4G10 (Upstate Biotechnology) and the bound antibody was detected via enhanced chemiluminescence (cat. 34080, Pierce) following treatment with HRP- coupled goat-anti-mouse antibody (VWR cat. 7101332) according to the manufacturer's instructions.
# The cell lysate used includes the protein tyrosine kinase Src, Fyn, Lck, Lyn, Yes, Fgr, Hck, Zap, Syk, Btk, Blk, and other protein tyrosine kinase present in B and T lymphocytes, macrophages, and follicular dendritic cells (13). Molecular size standards (in kilodaltons) are indicated.
# Cdc28-as1 · MBP-Clb2 = molecular target: T6, Cdc28-as1 · MBP-Clb2 (Saccharomyces cerevisiae, UniProt P00546, F88G); assay type: biochemical
# T6 construct: made in house; host or cells: Sf9 insect cells, baculovirus, co-infected with Cak1-HA3 (Cdc28-as1-His6); bacteria (MBP-Clb2)
# GST-XD4 [11] = molecular target: T4, GST-XD4; details: read-out: KM for protein substrate RR-Src at saturated nucleotide
# wild-type Fyn = wild-type Fyn (Homo sapiens, UniProt P06241); experiment: Peptide phosphorylation assay, screening of inhibitors orthogonal to wild-type kinases; assay type: biochemical; details: read-out: IC50 for inhibition of wild-type Fyn
# Source text: Screening of inhibitors which are orthogonal to wild-type kinases: To identify compounds that would not inhibit any existing cellular kinases, the panel of synthetic pyrazolo pyrimidine analogs (1-6) (FIG. 10) were screened against two closely related purified protein tyrosine kinases, v-Src and Fyn, in a peptide phosphorylation assay using [γ-^32P]
# [12] = GST-XD4, 1 mM RR-Src, 37° C., pH 8.0
# T6 sequence (P00546 whole entry F88G): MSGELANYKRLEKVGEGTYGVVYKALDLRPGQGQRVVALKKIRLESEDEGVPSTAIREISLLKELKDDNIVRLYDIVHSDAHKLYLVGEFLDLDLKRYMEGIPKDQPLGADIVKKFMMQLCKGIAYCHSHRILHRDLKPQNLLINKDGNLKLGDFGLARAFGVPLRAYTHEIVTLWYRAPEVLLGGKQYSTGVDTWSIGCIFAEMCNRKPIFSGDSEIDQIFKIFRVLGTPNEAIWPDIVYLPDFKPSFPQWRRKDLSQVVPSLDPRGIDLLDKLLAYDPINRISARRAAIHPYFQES
# T6 sequence (P24869 whole entry, further chain): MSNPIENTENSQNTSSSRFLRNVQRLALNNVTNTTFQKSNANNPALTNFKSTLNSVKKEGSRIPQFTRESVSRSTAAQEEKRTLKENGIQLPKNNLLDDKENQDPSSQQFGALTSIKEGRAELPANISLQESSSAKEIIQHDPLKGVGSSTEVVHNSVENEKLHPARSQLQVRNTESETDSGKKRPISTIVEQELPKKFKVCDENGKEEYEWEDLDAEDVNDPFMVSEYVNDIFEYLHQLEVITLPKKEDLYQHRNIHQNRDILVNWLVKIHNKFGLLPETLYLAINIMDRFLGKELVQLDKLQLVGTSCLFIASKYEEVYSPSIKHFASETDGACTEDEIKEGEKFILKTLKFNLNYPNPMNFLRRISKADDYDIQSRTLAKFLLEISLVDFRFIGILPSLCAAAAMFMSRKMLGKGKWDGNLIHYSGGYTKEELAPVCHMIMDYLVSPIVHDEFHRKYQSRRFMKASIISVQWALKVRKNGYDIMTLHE
# T2 sequence (Q05655 whole entry, species assumed): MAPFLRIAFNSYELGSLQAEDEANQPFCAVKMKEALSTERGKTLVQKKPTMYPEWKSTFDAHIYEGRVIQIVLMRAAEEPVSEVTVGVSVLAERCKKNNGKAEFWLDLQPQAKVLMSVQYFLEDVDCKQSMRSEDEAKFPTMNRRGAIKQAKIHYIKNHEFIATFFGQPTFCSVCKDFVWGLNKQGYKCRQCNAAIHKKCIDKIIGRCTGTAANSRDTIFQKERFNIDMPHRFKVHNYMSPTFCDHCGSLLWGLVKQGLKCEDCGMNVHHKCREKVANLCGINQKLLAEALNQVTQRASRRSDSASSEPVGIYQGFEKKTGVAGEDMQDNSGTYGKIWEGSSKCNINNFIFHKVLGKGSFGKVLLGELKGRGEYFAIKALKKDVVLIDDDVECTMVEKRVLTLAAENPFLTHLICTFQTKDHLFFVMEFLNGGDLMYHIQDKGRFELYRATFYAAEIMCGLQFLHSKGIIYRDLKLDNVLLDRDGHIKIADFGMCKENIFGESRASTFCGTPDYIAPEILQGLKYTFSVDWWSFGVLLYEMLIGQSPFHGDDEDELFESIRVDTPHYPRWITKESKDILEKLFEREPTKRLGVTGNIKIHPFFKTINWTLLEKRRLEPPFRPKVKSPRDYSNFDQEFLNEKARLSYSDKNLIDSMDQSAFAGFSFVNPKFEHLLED
# Chain of wild-type Fyn (P06241 1-534 isoform P06241-2, species assumed): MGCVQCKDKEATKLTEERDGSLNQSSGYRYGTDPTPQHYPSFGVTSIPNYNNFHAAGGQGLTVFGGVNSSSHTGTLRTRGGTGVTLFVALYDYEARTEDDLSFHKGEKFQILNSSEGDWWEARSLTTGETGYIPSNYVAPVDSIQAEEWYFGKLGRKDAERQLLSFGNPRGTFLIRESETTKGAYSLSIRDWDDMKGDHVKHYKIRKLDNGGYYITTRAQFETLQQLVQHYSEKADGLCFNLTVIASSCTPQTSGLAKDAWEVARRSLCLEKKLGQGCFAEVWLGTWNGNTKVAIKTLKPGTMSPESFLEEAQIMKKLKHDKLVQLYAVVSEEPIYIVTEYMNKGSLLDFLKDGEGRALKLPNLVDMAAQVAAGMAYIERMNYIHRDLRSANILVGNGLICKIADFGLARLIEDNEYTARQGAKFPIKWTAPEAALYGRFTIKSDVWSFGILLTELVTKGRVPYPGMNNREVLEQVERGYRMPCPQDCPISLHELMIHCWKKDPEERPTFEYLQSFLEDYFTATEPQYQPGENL
structure (smiles),measurement,setting,value
"CC(C)(C)c1ccc(C(=O)Nc2ncnc3c2c(-c2ccccc2)nn3C(C)(C)C)cc1 [Compound 3g, 4-(p-tert-butyl)benzamido-1-tert-butyl-3-phenylpyrazolo[3,4-d]pyrimidine]",mode of inhibition of I338G v-Src,I338G v-Src; Lineweaver-Burk analysis,competitively with respect to ATP
same,Ki,"I338G v-Src; Lineweaver-Burk analysis at various ATP concentrations, read-out: inhibitory constant (Ki), I338G v-Src",~0.4 µM
same,phosphotyrosine pattern of B cell stimulation,[1],no effect on the phosphotyrosine pattern of B cell stimulation
same,inhibition of PKCd,PKCd,not detectably inhibited
same,cell morphology and polymerized actin,[2],appeared flat and did not exhibit growth characteristics of transformed cells; also recorded: have defined polymerized actin strings
same,tyrosine phosphorylation,[3],but not WT v-Src transformed NIH3T3 fibroblasts; also recorded: causes no loss of tyrosine phosphorylation
same,inhibition of PKA,PKA,not detectably inhibited
"O=P(O)(O)OP(=O)(O)OP(=O)(O)OC[C@H]1O[C@@H](n2cnc3c(NC4CCCC4)ncnc32)[C@H](O)[C@@H]1O [ATP analog 8, N^6(cyclopentyl)ATP]",radiolabeled phosphoproteins in cell lysate,[4],no radiolabeled phosphoproteins in the cell lysate
same,use as phosphodonor for autophosphorylation,GST-XD4 [5],apparent complete inability of GST-XD4 to use this analog as a phosphodonor for autophosphorylation
same,"inhibition of GST-XD4(V323A, I338A) catalyzed RR-Src phosphorylation","GST-XD4(V323A, I338A) [6]","almost as well as the wild-type kinase, GST-XD4, is inhibited by its natural substrate ATP"
same,phosphorylation of RR-Src peptide with the nucleotide as phosphate donor,"GST-XD4(V323A, I338A) [7]",displayed Michaelis-Menten kinetics
same,Ki,GST-XD4 [8],2000 µM
same,phosphorylation of RR-Src peptide with the nucleotide as phosphate donor,GST-XD4 [8]; wild-type GST-XD4,did not substantially phosphorylate the RR-Src peptiide
same,use as phosphodonor for autophosphorylation,"GST-XD4(V323A, I338A) [9]",efficiently autophosphorylated
same,ability to serve as cellular protein tyrosine kinase substrate (level of protein tyrosine phosphorylation),[10],slightly lower level of phosphorylation with wild-type kinase
"Nc1ncnc2c1ncn2[C@@H]1O[C@H](COP(=O)(O)OP(=O)(O)OP(=O)(O)O)[C@@H](O)[C@H]1O [ATP, adenosine triphosphate]",Km,GST-XD4 [8]; [12],12 ± 3 µM
same,kcat,GST-XD4 [8]; [12],0.033 ± 0.0083 s⁻¹
same,reduction in binding affinity for ATP relative to wild-type Cdc28,Cdc28-as1 · MBP-Clb2,10 fold
same,reduction in maximum ATP turnover rate relative to wild-type Cdc28,Cdc28-as1 · MBP-Clb2,6 fold
same,Km,GST-XD4 [11],2600 ± 900 µM
"CC(C)(C)n1nc(-c2ccccc2)c2c(NC(=O)c3ccccc3)ncnc21 [Compound 3e, 4-benzamido-1-tert-butyl-3-phenylpyrazolo[3,4-d]pyrimidine]",IC50,wild-type Fyn,> 400 µM

# From patent US20030073218A1, “High affinity inhibitors for target validation and uses thereof” (Princeton University, priority 1999, published 2003)
